pKd: −log10 of the molar value. Like-named read-outs stand apart in the source and are kept apart here.
Assays:
heparanase [1] = test: Plasma heparanase level (ELISA), human plasma, peptide added ex vivo; format: biochemical; details: 20 μg/ml peptide ex vivo, Fig 1B, n.s.
Protocol: As described before, we used plasma from 18 adult individuals within 24 hours after presentation with septic shock, according to the ACCP/SCCM definition after written informed consent of patients or their legal representative. Individuals below 18 years were excluded. Furthermore, we used plasma from healthy human donors after written informed consent (n = 10). No personal or identifying information was collected from study participants. All samples are stored in the RWTH centralized Biomaterial Database (RWTH cBMB) of the University Hospital RWTH Aachen. The local ethics committee (University Hospital RWTH Aachen, EK 206_09) approved this study before inclusion of the first individual.
(§1) Heparanase levels in human and murine plasma were measured using a commercial ELISA kit (No.: E03H0100, AMS Biotechnology, Oxon, United Kingdom) according to the manufacturer’s instructions. The ELISA´s detection range is 1.0 ng/ml– 5000 ng/ml.

[2] = Isothermal titration calorimetry, binding to HS-fragments; details: ITC
Protocol: Isothermal titration calorimetry (ITC) experiments were performed as previously described. Briefly, the binding of peptide 19–2.5 to heparanase or HS-fragments was recorded by measuring the enthalpy change of the reaction at 37°C. For this, a total of 100 μg/ml heparanase (R&D Systems Europe Ltd., Abingdon, United Kingdom) and 200 μg/ml HS-fragments (H7640 Sigma-Aldrich, St. Louis, MO, USA) were dispersed into the calorimetric cell, and 2 mM peptide 19–2.5 was titrated to this dispersion stepwise in 3 μl portions. After exploring experiments, the concentration of HS was 100 μg/ml titrated with 1.5 μl of peptide 19–2.5 (2 mM) 20 times at 37°C.
Fig 5 Isothermal titration calorimetry (ITC). For the ITC experiments, 2 mM peptide 19–2.5 was titrated to this dispersion stepwise in 3 μl portions into (A) 200 μg/ml heparan sulfate-fragments (HS) and (B) 100 μg/ml heparanase (Hep). In each titration, the resulting heat signals P were recorded (peak downwards are exothermic, peaks upwards endothermic reactions) against time (min) and presented in the top parts of Fig 5A and 5B. The integrated enthalpy changes ΔH versus [peptide]:[HS-fragments] (A) and [peptide]:[heparanase] (B) concentration ratios of the single titrations are illustrated in the bottom parts of Fig 5A and 5B.

[3] = cited from earlier work
From the text: Since heparanase is the major mammalian enzyme liberating circulating HS-fragments, we investigated heparanase activity in mice subjected to CLP. […] Additionally, the inhibition of heparanase is lung-protective in murine sepsis. Recently, it was sh ...

heparanase [4] = test: Plasma heparanase level (ELISA), CLP septic mice; format: in vivo, murine; details: CLP-mice (NMRI), 24 h after CLP, peptide i.v. infusion 20 μg/ml, 100 μl/h vs NaCl 0.9%, n = 6 per group, Fig 1A, ***p < 0.0001
Protocol: as §1
(§2) The murine model of polymicrobial sepsis was divided into three steps as described before. Briefly, in a first step 12 NMRI mice underwent a catheterization procedure under general (isoflurane 1% to 2% in oxygen/air mix with a FiO2 of 0.3) and local (0.2 ml lidocaine 2%) anesthesia. A central vein catheter (PE-tube, self-made) was implanted in the jugular vein. After further local infiltration with lidocaine, the neck was closed by single suture. To prevent hypothermia all animals were kept on a heating pad throughout the surgical procedure. Mice were transferred back into the cage to rest for 48h. The i.v.-line was connected to the syringe pump at a rate of 100 μl/h (NaCl 0.9%).
(§3) In a second step, general and local anesthesia for cecal ligature and puncture (CLP) was performed as described above. The animal were transferred to the cage and reconnected with the i.v.-line. Depending on the group, peptide 19–2.5 infusion (20 μg/ml, 100 μl/h) or NaCl 0.9% infusion (100 μl/h) was started.
Finally, in a third step all animals were killed 24 h after CLP. […]

[5] = set-up: method as in PMID 22457281; details: after incubating HS with peptide 19–2.5; cited from earlier work
heparanase [6] = test: Plasma heparanase activity, CLP septic mice; format: in vivo, murine; details: CLP-mice (NMRI), 24 h after CLP; peptide i.v. infusion 20 μg/ml, 100 μl/h vs NaCl 0.9%; n = 6 per group; Fig 3A
Protocol: Heparanase activity in human and murine plasma was quantified using the commercial available Heparanase Assay Kit (No.: Ra001-BE-K, AMS Biotechnology, Oxon, United Kingdom) according to the manufacturer’s instructions.
as §2, §3
Finally, in a third step all animals were killed 24 h after CLP. Therefore, the animals were anesthetized as described above, brought to a prone position and the abdomen and thorax were opened. […]

[7] = system: Gram-negative and Gram-positive bacteria as well as against viruses; details: cited from earlier work
From the text: (§4) The synthetic antimicrobial peptide 19–2.5 belongs to the class of synthetic anti-lipopolysaccharide peptides (SALP = synthetic anti-LPS peptides). […] We recently reported that peptide 19–2.5 is able to decrease the inflammatory response in murine cells stimulated with both PAM ...

mice = details: cited from earlier work
From the text: as §4

[8] = 37°C, 2 mM peptide in 3 μl portions into 200 μg/ml HS-fragments, Fig 5A
[9] = 37°C, 2 mM peptide titrated 20 times 1.5 μl into 100 μg/ml HS, experiment 1
[10] = 37°C, 2 mM peptide titrated 20 times 1.5 μl into 100 μg/ml HS, experiment 2
[11] = 37°C, 2 mM peptide titrated 20 times 1.5 μl into 100 μg/ml HS, experiment 3
[12] = 37°C, 2 mM peptide titrated 20 times 1.5 μl into 100 μg/ml HS, experiment 4
[13] = 37°C, 2 mM peptide titrated 20 times 1.5 μl into 100 μg/ml HS, mean of n = 4

With “peptide 19–2.5: synthetic antimicrobial peptide 19–2.5 belongs to the class of synthetic anti-lipopolysaccharide peptides (SALP = synthetic anti-LPS peptides)” the “plasma heparanase level after ex vivo addition of peptide” value (heparanase [1]; plasma of healthy human volunteers (n = 10)) was “did not influence heparanase levels”, the “plasma heparanase level after ex vivo addition of peptide” value (heparanase [1]; plasma of septic shock patients (n = 18)) was “did not influence heparanase levels” and the “[Peptide 19–2.5]:[HS] weight ratio at saturation” value [2, 8] was ~0.6. The “heat of reaction on titration to HS-fragments” value [2, 8] was “high exothermic reaction”, the Ka binding constant [2, 9] was 1.93e+06 M⁻¹ and the Kd [2, 9] was 518 nM. For the same substance, the “N stoichiometry of binding” value [2, 9] was 0.511 w/w ratio, the “ΔG Gibbs free energy” value [2, 9] was -8.918 kcal/mol and the ΔS entropy change [2, 9] was 4.46 cal/mol/K. For the same substance, the Ka binding constant [2, 10] was 1.52e+07 M⁻¹, the Kd [2, 10] was 65.7 nM and the “N stoichiometry of binding” value [2, 10] was 0.475 w/w ratio. For the same substance, the “ΔG Gibbs free energy” value [2, 10] was -10.192 kcal/mol, the ΔS entropy change [2, 10] was 6.42 cal/mol/K and the Ka binding constant [2, 11] was 1.55e+07 M⁻¹. The Kd [2, 11] was 64.5 nM, the “N stoichiometry of binding” value [2, 11] was 0.547 w/w ratio and the “ΔG Gibbs free energy” value [2, 11] was -10.201 kcal/mol. It also gave a ΔS entropy change [2, 11] of 10.8 cal/mol/K, a Ka binding constant [2, 12] of 1.2e+07 M⁻¹ and a Kd [2, 12] of 83.3 nM. The “N stoichiometry of binding” value [2, 12] was 0.534 w/w ratio, the “ΔG Gibbs free energy” value [2, 12] was -10.046 kcal/mol and the ΔS entropy change [2, 12] was 6.77 cal/mol/K. The Ka binding constant [2, 13] was 1.12e+07 M⁻¹, the “N stoichiometry of binding” value [2, 13] was 0.520 w/w ratio and the “ΔG Gibbs free energy” value [2, 13] was -9.839 kcal/mol. For the same substance, the ΔS entropy change [2, 13] was 7.11 cal/mol/K, the pKd ([2]; 37°C, 2 mM peptide titrated 20 times 1.5 μl into 100 μg/ml HS, mean of n = 4, read-out: Kd) was 7.05 and the “titration curve shape with HS-fragments” value ([2]; Fig 5A) was “S-shaped curve with saturation characteristic for a complex formation”. The “effect on LPS aggregate structure and pro-inflammatory effects” value [3] was “changes the aggregate structure of LPS thereby neutralizing the pro-inflammatory effects of LPS”, the “plasma heparanase level, untreated CLP-mice vs peptide-treated” value (heparanase [4]) was “significantly higher levels of plasma heparanase compared to mice treated with peptide 19–2.5” and the “effect on peptide secondary structure and on HS hydration and sulfation status” value [5] was “alteration of the peptide’s secondary structure and a characteristic change in the hydration and sulfation status of HS”. The “plasma heparanase activity vs untreated control” value (heparanase [6]) was “significant lower heparanase activity compared to untreated control animals”, the anti-inflammatory activity [7] was “shows anti-inflammatory activity against Gram-negative and Gram-positive bacteria as well as against viruses” and the “protection from lethal septic shock” value (mice) was “protects mice from lethal septic shock”.

— PMC4658182, “The Synthetic Antimicrobial Peptide 19-2.5 Interacts with Heparanase and Heparan Sulfate in Murine and Human Sepsis” (PLoS ONE, 2015)
